From ChEMBL document CHEMBL1131786, “Synthesis of probes for the active site of leucine dehydrogenase” (Bioorg Med Chem Lett, 1999)

How the values were obtained:
[1] = test system: Bacillus; test: Compound was evaluated for the inhibition of Leucine dehydrogenase of Bacillus species; settings: concentration not given here
[2] = test system: Sporosarcina; test: Compound was evaluated for the inhibition of Phenylalanine dehydrogenase of Sporosarcina species; settings: concentration not given here

| inhibition [1] [%] | inhibition [2] [%] | SMILES |
| --- | --- | --- |
| 93 | – | COCO[C@@H](C)C(=O)C(=O)O |
| 8 | – | COCO[C@H](C)C(=O)C(=O)O |
| – | 61 | C[C@@H](O)[C@H](N)C(=O)O |
| – | 53 | C[C@H](O)[C@H](N)C(=O)O |
